Data: patent US20080063642A1, “Methods of using (+)-1,4-dihydro-7-[(3S,4S)-3-methoxy-4-(methylamino)-1-pyrrolidinyl]-4-oxo-1-(2-thiazolyl)-1,8-naphthyridine-3-carboxylic acid for treatment of certain hematologic disorders” (priority 2006, published 2008)

Experiments:
[1] = system: peripheral neutrophils, white blood cells, platelets; assay: Combination dosing SNS-595 and Ara-C (Example 5): peripheral cytology; assay type: in vivo, nu/nu mice
Experimental: At various time points described in Table 5, mice were euthanized by CO2 asphyxiation in accordance to Institutional Animal Care and Use Committee (IACUC) guidelines. Blood was collected through cardiac tap and transferred to EDTA tubes. The analysis of murine blood CBC and differential counts for samples in these tubes was conducted (at Quality Clinical Labs, Moutainview). Statistical significance was determined by one-tailed student t-test, using Welch's correction for unequal variances.

[2] = system: femoral bone marrow; assay: Combination dosing SNS-595 and Ara-C (Example 5): femoral bone marrow cellularity; assay type: in vivo, nu/nu mice
Text: Femurs were harvested for histological evaluation. The femur was placed in Streck fixative, paraffin embedded, sectioned, transferred to slides, and H&E stained (at BioPathology Sciences). Immunohistochemical slides were processed and analyzed for percent cellularity of intact bone marrow.

[3] = system: bone marrow; assay: Monotherapy and combination with Ara-C (Example 6): bone marrow total cellularity; assay type: in vivo, Female CD-1 mice; details: for Total Cellularity (Avg) Exp #1: two days after completion of treatment
Experimental: Blood was analyzed at Quality Control Labs (Mountain View, Calif.) for complete blood count and differential count. Bone marrow smears from femurs on Day 6 and Day 12 were prepared and geimsa stained for differential counts. Femurs were also placed in Streck fixative, processed, sectioned and H&E stained. Femur and bone marrow smears were analyzed at BioPathology Sciences (South San Francisco, Calif.) for total cellularity and differential count. […] The compounds were administered on Day 0 and Day 4.

[4] = in vivo; details: CD-1, mouse
[5] = Combination dosing SNS-595 and Ara-C (Example 5): body weight changes
Experimental: The effects of dosing were studied on changes in body weight, peripheral cytology, and femoral bone marrow cellularity over time as described below.
Before beginning the study, all animals were allowed to acclimatize for 3 days from shipping related stress and the health of the mice was assessed daily by observation. Purified water (reverse osmosis) and irradiated food (PicoLab Rodent Diet 20, #5053; Dean's Animal Feeds, San Carlos, Calif.) were provided ad libitum, and the animals were kept on a 12 hour light and dark cycle.

[6] = Ara-C 20, 40 and 60 mg/kg tid q4d ×2
[7] = Group 5: Ara-C 20 mg/kg SC tid q4d × 2
[8] = Group 6: Ara-C 40 mg/kg SC tid q4d × 2
[9] = Group 7: Ara-C 60 mg/kg SC tid q4d × 2

Nc1ccn([C@@H]2O[C@H](CO)[C@@H](O)[C@@H]2O)c(=O)n1 [Ara-C, cytarabine]
day of nadir of number of neutrophils ([1]; Ara-C 20 mg/kg tid q4d ×2): 6 days | day of nadir of platelets ([1]; Ara-C 40 mg/kg tid q4d ×2): 8 days | number of white blood cells versus vehicle group ([1]; Ara-C 60 mg/kg, day 8): significantly lower than the vehicle group | circulating white blood cells, dose response [1, 6]: dose-dependent reduction | day of nadir of platelets ([1]; Ara-C 20 and 60 mg/kg tid q4d ×2): 6 days | day of nadir of number of neutrophils ([1]; Ara-C 40 and 60 mg/kg tid q4d ×2): 8 days | day by which neutrophils returned to normal levels ([1]; Ara-C all dose levels): ≤ 12 days | day by which platelets returned to normal levels ([1]; Ara-C all dose levels): ≤ 12 days | recovery of white blood cells ([1]; Ara-C all dose levels): failed to return to normal levels by day 18 | number of platelets versus vehicle group ([1]; Ara-C all dose levels, day 6 and day 8): significantly lower than the vehicle group | number of neutrophils versus vehicle group ([1]; Ara-C all dose levels, day 8): significantly lower than the vehicle group | reduction in cellularity ([2]; Ara-C 20 mg/kg SC three times a day, single agent): 12% | bone marrow cellularity, dose response ([2]; Ara-C single agent 20, 40, 60 mg/kg): No dose dependent reduction | total cellularity, femur cross section of representative animal ([2]; Day 6, Ara-C 20 mg/kg tid q4d ×2 SC, Animal #83): 90% | total cellularity, femur cross section of representative animal ([2]; Day 6, Ara-C 40 mg/kg tid q4d ×2 SC, Animal #103): 90% | total cellularity, femur cross section of representative animal ([2]; Day 6, Ara-C 60 mg/kg tid q4d ×2 SC, Animal #122): 50% | total cellularity, femur cross section of representative animal ([2]; Day 12, Ara-C 60 mg/kg tid q4d ×2 SC, Animal #134): 50% | Average Total Cellularity Day 6 [2, 7]: 88% | Average Total Cellularity Day 6 [2, 8]: 90% | Average Total Cellularity Day 6 [2, 9]: 58% | Average Total Cellularity Day 12 [2, 9]: 99% | Total Cellularity (Avg) Exp #2 ([3]; Ara-C 20 mg/kg tid q4d ×2): 92% | Total Cellularity (Avg) Exp #1 ([3]; Ara-C 20 mg/kg tid q4d × 2): 88% | Total Cellularity (Avg) Exp #2 ([3]; Ara-C 60 mg/kg tid q4d × 2): 54% | Total Cellularity (Avg) Exp #1 ([3]; Ara-C 60 mg/kg tid q4d × 2): 58% | MTD [4]: 60 mg/kg | day of maximum body weight loss [5, 6]: 7 days | maximum body weight loss [5, 6]: ≤ 2% | % of Body Wt Nadir [5, 7]: −0.3% | Day of Body Wt Nadir [5, 7]: 7 days | % of Body Wt Nadir [5, 8]: 0% | Day of Body Wt Nadir [5, 8]: 0 days | % of Body Wt Nadir [5, 9]: −1.7% | Day of Body Wt Nadir [5, 9]: 7 days
